Assay results taken from publication PMC12348105, “Pinene-Based Chiral Bipyridine Ligands Drive Potent Antibacterial Activity in Rhenium(I) Complexes” (Molecules, 2025).
Converted amounts (≈) assume the structure as drawn.

What was measured:
[1] = test system: methicillin-sensitive S. aureus (MSSA); experiment: MIC determination against methicillin-sensitive S. aureus (broth dilution, OD600); assay type: cell-based, Staphylococcus aureus; details: 24 h, 37 °C
Experimental: (§1) The antimicrobial activity of the rhenium tricarbonyl mononuclear complexes and their corresponding pinene-bipyridine ligands was determined against two S. aureus strain: methicillin-resistant S. aureus (MRSA 43300) and methicillin-sensitive S. aureus (MSSA 25923). These microorganisms are responsible for most nosocomial infections. […] Their mechanism of action is not yet fully understood, but we hypothesized that their positive charge allows them to interact more easily with biomolecules than neutral complexes, and/or that they more strongly interact with the negatively charged cellular membrane.
(§2) The antimicrobial activity of the complexes was evaluated against two strains: Staphylococcus aureus SA113 (methicillin-susceptible, MSSA) and S. aureus MecA R2954 (methicillin-resistant, MRSA). Briefly, each complex was initially dissolved in sterile DMSO at a concentration of 10 mM to create a stock solution. The solutions were diluted with Mueller–Hinton Broth (MHB) culture medium and added (serial dilution) to the wells of a 96-well plate at final concentrations ranging from 100 µM to 0.2 µM. Simultaneously, bacterial cultures grown the previous day in non-cation-adjusted MHB (1×) were used to prepare suspensions at 1 × 10^6 CFU/mL. An equal volume (50 µL) of these bacterial suspensions was added to each well containing the diluted complexes, resulting in final bacterial and compound concentrations of 5 × 10^5 CFU/mL and 100 µM to 0.2 µM, respectively. The plates were incubated at 37 °C for 24 h. Minimum inhibitory concentrations (MICs) were determined by measuring optical density at 600 nm (OD600). All experiments were performed in triplicate.

[2] = test system: L929 mouse fibroblast cells; experiment: Cell toxicity, MTT assay; assay type: cell-based; details: 24 h treatment
Experimental: The cytotoxicity of the complexes was evaluated using L929 mouse fibroblast cells cultured in DMEM supplemented with 10% (v/v) fetal bovine serum (FBS), 1% (v/v) penicillin/streptomycin, and L-glutamine. Cytotoxicity was assessed using the standard MTT assay. Briefly, cells were seeded into 96-well plates at a density of 3.75 × 10^4 cells/mL and incubated for 24 h. The complexes, initially dissolved in DMSO, were diluted with culture medium and added to the wells at final concentrations ranging from 100 µM to 0.2 µM. After 24 h of treatment, MTT solution (5 mg/mL in PBS) diluted in fresh medium was added to each well at 25% of the total volume and incubated for an additional 4 h. Formazan crystals formed by metabolically active cells were then solubilized in a 1:1 (v/v) DMSO:ethanol solution. Control wells included untreated cells (100% viability). Relative cell viability was calculated by comparing absorbance values to those of the untreated control.

[3] = test system: methicillin-resistant S. aureus (MRSA); experiment: MIC determination against methicillin-resistant S. aureus (broth dilution, OD600); assay type: cell-based, Staphylococcus aureus; details: for MIC: 24 h, 37 °C
Experimental: as §1, §2

Row | MIC ([1]; Staphylococcus aureus) [µM] | MIC ([3]; Staphylococcus aureus, MRSA) [µM] | Compound | IC50 [2] [µM] | MIC [1] [µM] | MIC ([3]; MRSA) [µM] | also measured
1 | 3.13 (≈ 0.784 µg/mL) | 3.13 (≈ 0.784 µg/mL) | CC1(C)[C@H]2Cc3cc(-c4ccccn4)ncc3[C@@H]1C2 [4,5-pinbpy, (−)-4,5-pinene bipyridine] | 2.5 to 5 |  |  | 
2 | 3.13 (≈ 0.784 µg/mL) | 3.13 (≈ 0.784 µg/mL) | CC1(C)[C@H]2Cc3nc(-c4ccccn4)ccc3[C@@H]1C2 [5,6-pinbpy, (−)-5,6-pinene bipyridine] | 2.5 to 5 |  |  | 
3 |  |  | N#CC(C#N)=NNc1cccc(Cl)c1 [CCCP] |  |  |  | MIC of positive control ([3]; S. aureus, concentration stated as 1× MIC): 12.5 µM
4 |  |  | [Re(CO)3(bpy)(Py)](OTf) |  | 100 | 100 | 
5 |  |  | [Re(CO)3(bpy)Br] |  | >50 | >50 | MIC higher than that of C2Br ([3]; MRSA, same core structure): ~10 fold
